Among the data in patent US5281628A, “9-amino-7-(substituted)-6-demethyl-6-deoxytetracyclines” (American Cyanamid Company, priority 1991, dated 1994) are MIC and ED50 values, retold here.

For assay [1], the system named is Coagulase negative staphylococci CI 535. The assay can be described thus: MIC, microtiter broth dilution. It counts as cell-based. Particulars: 18 h. On the procedure: (§1) The minimum inhibitory concentration (MIC), the lowest concentration of the antibiotic which inhibits growth of the test organism, is determined by the microtiter broth dilution method using 0.1 ml Muller-Hinton II broth (Baltimore Biological Laboratories) per well. A suitable oxygen scavenger (i.e., cysteine or dithiothreitol) is added to the assay medium for the testing of compounds according to Formula I because of the sensitivity of those compounds to oxidation. An inoculum level of 1-5×10^5 CFU/ml and a range of antibiotic concentrations (32 0.004 μg/ml) are used.
For orientation: In broth dilution the organism is exposed to a series of concentrations in liquid medium.

Assay [2] deals with Coagulase negative staphylococci CI 664. The assay can be described thus: MIC, microtiter broth dilution. It is filed as cell-based. As to conditions: 18 h. Here is the method: as §1
Another assay deals with E. coli ATCC 25922. The assay can be described thus: MIC, microtiter broth dilution. As to conditions: Escherichia coli, ATCC25922, 18 h. It is filed as cell-based. On the procedure:
as §1

In assay [3] the test system is E. coli UBMS 90-5 (tetracycline-sensitive). The assay can be described thus: MIC, microtiter broth dilution. It counts as cell-based. Particulars: Escherichia coli, 18 h. Here is the method:
as §1

The subject of assay [4] is E. faecalis 12201 (vancomycin-resistant). Put plainly: MIC, microtiter broth dilution. It is filed as cell-based. Particulars: Enterococcus faecalis, 18 h. On the procedure:
as §1

A further assay relates to E. faecalis ATCC 29212. Put plainly: MIC, microtiter broth dilution. Particulars: Enterococcus faecalis, ATCC29212, 18 h. It counts as cell-based. On the procedure:
as §1

A further assay has as its system E. faecalis CI 2735. The assay can be described thus: MIC, microtiter broth dilution. As to conditions: Enterococcus faecalis, CI2735, 18 h. It is filed as cell-based. On the procedure: as §1
In the next assay the test system is P. aeruginosa ATCC 27853. The assay can be described thus: MIC, microtiter broth dilution. It is filed as cell-based. Particulars: Pseudomonas aeruginosa, ATCC27853, 18 h. On the procedure: as §1
In a further assay the test system is S. aureus ATCC 29213. The assay can be described thus: MIC, microtiter broth dilution. It is filed as cell-based. As to conditions: Staphylococcus aureus, ATCC29213, 18 h. Here is the method: as §1
Assay [5] concerns S. aureus CI 2371 (methicillin-resistant). The assay can be described thus: MIC, microtiter broth dilution. As to conditions: Staphylococcus aureus, 18 h. It counts as cell-based. On the procedure:
as §1

Assay [6] deals with S. aureus CI 3300 (methicillin-resistant). Put plainly: MIC, microtiter broth dilution. It counts as cell-based. Particulars: Staphylococcus aureus, 18 h. Here is the method: as §1
The test system of assay [7] is S. aureus IVES 1983 (methicillin-resistant). Put plainly: MIC, microtiter broth dilution. It counts as cell-based. Particulars: Staphylococcus aureus, 18 h. On the procedure: as §1
Assay [8] relates to S. aureus IVES 2943 (methicillin-resistant). Put plainly: MIC, microtiter broth dilution. As to conditions: Staphylococcus aureus, 18 h. It is filed as cell-based. Here is the method: as §1
For assay [9], the system named is S. aureus UBMS 88-4 (tetracycline-sensitive). The assay can be described thus: MIC, microtiter broth dilution. It is filed as cell-based. Particulars: Staphylococcus aureus, 18 h. Here is the method: as §1
Assay [10] has as its system S. aureus UBMS 90-3 (tetracycline-sensitive). The assay can be described thus: MIC, microtiter broth dilution. It is filed as cell-based. As to conditions: Staphylococcus aureus, 18 h. On the procedure:
as §1

The subject of assay [11] is S. haemolyticus AVAH 88-3. The assay can be described thus: MIC, microtiter broth dilution. It counts as cell-based. Particulars: Staphylococcus haemolyticus, AVAH883, 18 h. On the procedure:
as §1

A further assay deals with S. marcescens FPOR 87-33. Put plainly: MIC, microtiter broth dilution. It is filed as cell-based. Particulars: Serratia marcescens, FPOR8733, 18 h. Here is the method: as §1
A further assay deals with E. coli 311 (sens). The assay can be described thus: Acute lethal infections in mice. It counts as in vivo. As to conditions: Escherichia coli, sc, 168 h, Subcutaneous, Single Dose, 7 day survival. On the procedure: (§2) The therapeutic effects of tetracyclines are determined against acute lethal infections with various staphylococcal and E. coli strains. Female mice, strain CD-1 Charles River Laboratories, (20±2 grams) are challenged by an intraperitoneal injection of sufficient bacteria (suspended in broth or hog gastric mucin) to kill non-treated controls within 24-48 hours. Antibacterial agents, contained in 0.5 ml of 0.2% aqueous agar, are administered subcutaneously or orally 30 minutes after infection. When an oral dosing schedule is used, animals are deprived of food for 5 hours before and 2 hours after infection. Five mice are treated at each dose level. The 7 day survival ratios from three separate tests are pooled for calculation of median effective dose (ED50).

The next assay has as its system E. coli UBMS 90-4 (tetM). The assay can be described thus: Acute lethal infections in mice. It is filed as in vivo. As to conditions: Escherichia coli, sc, 168 h. Here is the method:
as §2

In a further assay the test system is S. aureus Smith (sens). Put plainly: Acute lethal infections in mice. It counts as in vivo. As to conditions: Staphylococcus aureus, 168 h, Single Dose, 7 day survival. On the procedure:
as §2

In assay [12] the test system is S. aureus UBMS 90-1 (tetM). The assay can be described thus: Acute lethal infections in mice. Particulars: Staphylococcus aureus, sc, 168 h. It is filed as in vivo. On the procedure:
as §2

In assay [13] the test system is S. aureus UBMS 90-2 (tetM). Put plainly: Acute lethal infections in mice. It counts as in vivo. As to conditions: Staphylococcus aureus, 168 h. On the procedure:
as §2

[14] abbreviates: in the presence of cysteine (0.05%).

Counter-ions that a name gives are not always drawn. Like-named read-outs stand apart in the source and are kept apart here. Bounds are passed on as bounds.

Broadly, the MIC is the lowest concentration that inhibits growth of the organism. As a reminder, the ED50 is the midpoint of the dose-response relation. Read a high ED50 as a need for a large dose. Turning to `CN(C)c1cc(N)c(O)c2c1C[C@H]1C[C@H]3[C@H](N(C)C)C(O)=C(C(N)=O)C(=O)[C@@]3(O)C(O)=C1C2=O` [A, 9-Amino-7-(dimethylamino)-6-demethyl-6-deoxytetracycline hydrochloride], the MIC in [1] (setting [14]) turned out to be 1 µg/mL; in [2] (setting [14]), 0.003 µg/mL; in the assay on E. coli ATCC 25922 (setting [14]), 0.25 µg/mL; in assay [3] (setting [14]), 0.25 µg/mL; in assay [4] (setting [14]) it was 0.5 µg/mL; in the assay on E. faecalis ATCC 29212 (setting [14]) it was 0.06 µg/mL. For the same compound, the MIC was determined as 0.5 µg/mL in the assay on E. faecalis CI 2735 (setting [14]); 2 µg/mL in the assay on P. aeruginosa ATCC 27853 (setting [14]); 0.008 µg/mL with S. aureus ATCC 29213 (setting [14]); 0.5 µg/mL in assay [5] (setting [14]); 0.25 µg/mL in [6] (setting [14]); 0.5 µg/mL in assay [7] (setting [14]). Further, the MIC was 0.5 µg/mL in assay [8] (setting [14]); 0.015 µg/mL in assay [9] (setting [14]); 0.015 µg/mL in assay [10] (setting [14]); 0.06 µg/mL in assay [11] (S. haemolyticus AVAH 88-3, in the presence of cysteine (0.05%), read-out: MIC); 4 µg/mL in the assay on S. marcescens FPOR 87-33 (setting [14]). Besides, the ED50 with E. coli 311 (sens) worked out at 2.8 mg/kg; in the assay on E. coli UBMS 90-4 (tetM), 24 mg/kg; in the assay on S. aureus Smith (sens) (Oral), 0.81 mg/kg; in the assay with S. aureus Smith (sens) (sc, Subcutaneous) it was 0.34 mg/kg; in assay [12] it was 0.3 mg/kg; in assay [13] (po), 1.6 mg/kg. Moreover, the ED50 in assay [13] (sc) was determined as 0.53 mg/kg.

Take `CN(C)c1ccc(O)c2c1C[C@H]1C[C@H]3[C@H](N(C)C)C(O)=C(C(N)=O)C(=O)[C@@]3(O)C(O)=C1C2=O` [B, 7-(Dimethylamino)-6-demethyl-6-deoxytetracycline hydrochloride]: the minimal inhibitory concentration (MIC) amounted to 8 µg/mL in assay [1] (no cysteine stated); 0.015 µg/mL in [2] (no cysteine stated); 0.25 µg/mL in the assay with E. coli ATCC 25922 (no cysteine stated); 0.5 µg/mL in [3] (no cysteine stated); 4 µg/mL in assay [4] (no cysteine stated); 0.25 µg/mL in the assay with E. faecalis ATCC 29212 (no cysteine stated). In addition, the MIC against E. faecalis CI 2735 (no cysteine stated) was 4 µg/mL; with P. aeruginosa ATCC 27853 (no cysteine stated), 4 µg/mL; against S. aureus ATCC 29213 (no cysteine stated) it was no more than 0.004 µg/mL; in assay [5] (no cysteine stated) it was 4 µg/mL; in assay [6] (no cysteine stated), 8 µg/mL; in assay [7] (no cysteine stated), 1 µg/mL. In addition, the MIC in assay [8] (no cysteine stated) worked out at 1 µg/mL; in [9] (no cysteine stated), 0.008 µg/mL; in assay [10] (no cysteine stated), 0.015 µg/mL; in assay [11] it was 0.12 µg/mL; with S. marcescens FPOR 87-33 (no cysteine stated), 2 µg/mL. The ED50 in the assay with E. coli 311 (sens) is 3.1 mg/kg; in the assay on E. coli UBMS 90-4 (tetM), greater than 256 mg/kg; in the assay with S. aureus Smith (sens) (Oral), 0.53 mg/kg; in the assay with S. aureus Smith (sens) (sc, Subcutaneous), 0.32 mg/kg; in assay [12], 1.7 mg/kg; in [13] (po) it was 1.8 mg/kg. The compound further yielded an ED50 in assay [13] (sc) of 1.8 mg/kg.
